According to patent US8883681B2, “Sugarcane harvest aid” (FMC Corporation, priority 2004, dated 2014):

Tested on: sugarcane, variety RB 81-5156 (plant-cane)
Assay: Evaluation of carfentrazone-ethyl as a sugarcane ripener (field trial, stems harvested 0-45 DAA; % POL, % BRIX, % PURITY)
Format: in vivo
Conditions: average of four replications
Experimental: The following example further illustrates the present invention, but, of course, should not be construed as in any way limiting its scope. The example includes a protocol for the evaluation of certain PPO-inhibiting compounds as ripeners on sugarcane crops, and sets forth certain data indicating the effectiveness of such compounds. Yield is measured in % POL, which is the percent saccharose content in the pressed broth or the cane. Purity and % BRIX (defined as total sugar content including glucose, fructose, saccharose and minerals) are also measures of crop yield, although the saccharose content is of primary concern.
The trial was performed on sugarcane, variety RB 81-5156 (plant-cane). The sugarcane was planted with spacing of 1.40 m between rows, using 30 kg/ha of N; 100 kg/ha of P2O5 and 80 gk/ha of K2O as basic fertilizers, complemented by a covering application of 30 kg/ha of N.
The application of ripeners was performed with pressurized back-pack sprayers, with flat fan nozzle 110.01. The flow was 65 l/ha and the pressure was 35 lb/in^2.
The experimental design used randomized plots with 6 treatments and 4 replications. The size of each experimental plot was 126 m^2 (6 spacing lines of 1.40 m per 15 m of length).
The climatic conditions at the time of the ripener applications were: average temperature of 27° C.; air relative humidity of 73%, wind speed of 4 km/hour.
One linear meter of stems was harvested in each experimental plot at 0 (zero), 15, 30 and 45 days after application (DAA) of the ripener. The sugar was extracted from these stems and submitted for GC and refractometer analysis of percent saccharose, glucose, fructose and minerals corresponding to % POL, % BRIX and % PURITY.
The results, shown as an average of four replications, were compared with results observed in the same trials with trinexapac-ethyl (Moddus).

CCOC(=O)C(Cl)Cc1cc(-n2nc(C)n(C(F)F)c2=O)c(F)cc1Cl (stereo not drawn) [Carfentrazone-ethyl, ethyl α,2-dichloro-5-[4-(difluoromethyl)-4,5-dihydro-3-methyl-5-oxo-1H-1,2,4-triazol-1-yl]-4-fluorobenzenepropanoate]
% BRIX in Pressed Broth of Sugarcane Crop after Application of Ripeners (30 g ai/ha, 0 DAA): 14.80% | % POL in Pressed Broth of Sugarcane Crop after Application of Ripeners (30 g ai/ha, 0 DAA): 11.90% | % POL in the Cane of Sugarcane Crop after Application of Ripeners (30 g ai/ha, 0 DAA): 10.38% | % PURITY in Pressed Broth of Sugarcane Crop after Application of Ripeners (30 g ai/ha, 0 DAA): 78.48% | % BRIX in Pressed Broth of Sugarcane Crop after Application of Ripeners (30 g ai/ha, 15 DAA): 15.40% | % POL in Pressed Broth of Sugarcane Crop after Application of Ripeners (30 g ai/ha, 15 DAA): 12.35% | % POL in the Cane of Sugarcane Crop after Application of Ripeners (30 g ai/ha, 15 DAA): 10.68% | % PURITY in Pressed Broth of Sugarcane Crop after Application of Ripeners (30 g ai/ha, 15 DAA): 79.10% | % BRIX in Pressed Broth of Sugarcane Crop after Application of Ripeners (30 g ai/ha, 30 DAA): 16.15% | % POL in Pressed Broth of Sugarcane Crop after Application of Ripeners (30 g ai/ha, 30 DAA): 12.75% | % POL in the Cane of Sugarcane Crop after Application of Ripeners (30 g ai/ha, 30 DAA): 10.75% | % PURITY in Pressed Broth of Sugarcane Crop after Application of Ripeners (30 g ai/ha, 30 DAA): 79.50% | % BRIX in Pressed Broth of Sugarcane Crop after Application of Ripeners (30 g ai/ha, 45 DAA): 16.40% | % POL in Pressed Broth of Sugarcane Crop after Application of Ripeners (30 g ai/ha, 45 DAA): 12.20% | % POL in the Cane of Sugarcane Crop after Application of Ripeners (30 g ai/ha, 45 DAA): 10.75% | % PURITY in Pressed Broth of Sugarcane Crop after Application of Ripeners (30 g ai/ha, 45 DAA): 79.35% | % BRIX in Pressed Broth of Sugarcane Crop after Application of Ripeners (40 g ai/ha, 0 DAA): 14.50% | % POL in Pressed Broth of Sugarcane Crop after Application of Ripeners (40 g ai/ha, 0 DAA): 12.55% | % POL in the Cane of Sugarcane Crop after Application of Ripeners (40 g ai/ha, 0 DAA): 10.38% | % PURITY in Pressed Broth of Sugarcane Crop after Application of Ripeners (40 g ai/ha, 0 DAA): 78.90% | % BRIX in Pressed Broth of Sugarcane Crop after Application of Ripeners (40 g ai/ha, 15 DAA): 15.50% | % POL in Pressed Broth of Sugarcane Crop after Application of Ripeners (40 g ai/ha, 15 DAA): 13.18% | % POL in the Cane of Sugarcane Crop after Application of Ripeners (40 g ai/ha, 15 DAA): 10.63% | % PURITY in Pressed Broth of Sugarcane Crop after Application of Ripeners (40 g ai/ha, 15 DAA): 80.28% | % BRIX in Pressed Broth of Sugarcane Crop after Application of Ripeners (40 g ai/ha, 30 DAA): 16.98% | % POL in Pressed Broth of Sugarcane Crop after Application of Ripeners (40 g ai/ha, 30 DAA): 13.70% | % POL in the Cane of Sugarcane Crop after Application of Ripeners (40 g ai/ha, 30 DAA): 10.98% | % PURITY in Pressed Broth of Sugarcane Crop after Application of Ripeners (40 g ai/ha, 30 DAA): 81.20% | % BRIX in Pressed Broth of Sugarcane Crop after Application of Ripeners (40 g ai/ha, 45 DAA): 16.90% | % POL in Pressed Broth of Sugarcane Crop after Application of Ripeners (40 g ai/ha, 45 DAA): 13.58% | % POL in the Cane of Sugarcane Crop after Application of Ripeners (40 g ai/ha, 45 DAA): 11.00% | % PURITY in Pressed Broth of Sugarcane Crop after Application of Ripeners (40 g ai/ha, 45 DAA): 81.43% | % BRIX in Pressed Broth of Sugarcane Crop after Application of Ripeners (60 g ai/ha, 0 DAA): 14.60% | % POL in Pressed Broth of Sugarcane Crop after Application of Ripeners (60 g ai/ha, 0 DAA): 12.55% | % POL in the Cane of Sugarcane Crop after Application of Ripeners (60 g ai/ha, 0 DAA): 10.63% | % PURITY in Pressed Broth of Sugarcane Crop after Application of Ripeners (60 g ai/ha, 0 DAA): 79.35% | % BRIX in Pressed Broth of Sugarcane Crop after Application of Ripeners (60 g ai/ha, 15 DAA): 15.20% | % POL in Pressed Broth of Sugarcane Crop after Application of Ripeners (60 g ai/ha, 15 DAA): 13.58% | % POL in the Cane of Sugarcane Crop after Application of Ripeners (60 g ai/ha, 15 DAA): 11.38% | % PURITY in Pressed Broth of Sugarcane Crop after Application of Ripeners (60 g ai/ha, 15 DAA): 81.85% | % BRIX in Pressed Broth of Sugarcane Crop after Application of Ripeners (60 g ai/ha, 30 DAA): 17.75% | % POL in Pressed Broth of Sugarcane Crop after Application of Ripeners (60 g ai/ha, 30 DAA): 14.50% | % POL in the Cane of Sugarcane Crop after Application of Ripeners (60 g ai/ha, 30 DAA): 12.45% | % PURITY in Pressed Broth of Sugarcane Crop after Application of Ripeners (60 g ai/ha, 30 DAA): 83.15% | % BRIX in Pressed Broth of Sugarcane Crop after Application of Ripeners (60 g ai/ha, 45 DAA): 17.45% | % POL in Pressed Broth of Sugarcane Crop after Application of Ripeners (60 g ai/ha, 45 DAA): 14.35% | % POL in the Cane of Sugarcane Crop after Application of Ripeners (60 g ai/ha, 45 DAA): 12.38% | % PURITY in Pressed Broth of Sugarcane Crop after Application of Ripeners (60 g ai/ha, 45 DAA): 83.15% | % BRIX in Pressed Broth of Sugarcane Crop after Application of Ripeners (80 g ai/ha, 0 DAA): 14.50% | % POL in Pressed Broth of Sugarcane Crop after Application of Ripeners (80 g ai/ha, 0 DAA): 12.45% | % POL in the Cane of Sugarcane Crop after Application of Ripeners (80 g ai/ha, 0 DAA): 10.80% | % PURITY in Pressed Broth of Sugarcane Crop after Application of Ripeners (80 g ai/ha, 0 DAA): 80.05% | % BRIX in Pressed Broth of Sugarcane Crop after Application of Ripeners (80 g ai/ha, 15 DAA): 15.80% | % POL in Pressed Broth of Sugarcane Crop after Application of Ripeners (80 g ai/ha, 15 DAA): 14.08% | % POL in the Cane of Sugarcane Crop after Application of Ripeners (80 g ai/ha, 15 DAA): 11.93% | % PURITY in Pressed Broth of Sugarcane Crop after Application of Ripeners (80 g ai/ha, 15 DAA): 82.90% | % BRIX in Pressed Broth of Sugarcane Crop after Application of Ripeners (80 g ai/ha, 30 DAA): 17.90% | % POL in Pressed Broth of Sugarcane Crop after Application of Ripeners (80 g ai/ha, 30 DAA): 15.05% | % POL in the Cane of Sugarcane Crop after Application of Ripeners (80 g ai/ha, 30 DAA): 13.25% | % PURITY in Pressed Broth of Sugarcane Crop after Application of Ripeners (80 g ai/ha, 30 DAA): 84.45% | % BRIX in Pressed Broth of Sugarcane Crop after Application of Ripeners (80 g ai/ha, 45 DAA): 17.80% | % POL in Pressed Broth of Sugarcane Crop after Application of Ripeners (80 g ai/ha, 45 DAA): 15.30% | % POL in the Cane of Sugarcane Crop after Application of Ripeners (80 g ai/ha, 45 DAA): 13.35% | % PURITY in Pressed Broth of Sugarcane Crop after Application of Ripeners (80 g ai/ha, 45 DAA): 84.05% | % BRIX in Pressed Broth of Sugarcane Crop after Application of Ripeners (100 g ai/ha, 0 DAA): 14.90% | % POL in Pressed Broth of Sugarcane Crop after Application of Ripeners (100 g ai/ha, 0 DAA): 12.50% | % POL in the Cane of Sugarcane Crop after Application of Ripeners (100 g ai/ha, 0 DAA): 10.98% | % PURITY in Pressed Broth of Sugarcane Crop after Application of Ripeners (100 g ai/ha, 0 DAA): 81.85% | % BRIX in Pressed Broth of Sugarcane Crop after Application of Ripeners (100 g ai/ha, 15 DAA): 15.30% | % POL in Pressed Broth of Sugarcane Crop after Application of Ripeners (100 g ai/ha, 15 DAA): 14.70% | % POL in the Cane of Sugarcane Crop after Application of Ripeners (100 g ai/ha, 15 DAA): 12.25% | % PURITY in Pressed Broth of Sugarcane Crop after Application of Ripeners (100 g ai/ha, 15 DAA): 83.78% | % BRIX in Pressed Broth of Sugarcane Crop after Application of Ripeners (100 g ai/ha, 30 DAA): 18.25% | % POL in Pressed Broth of Sugarcane Crop after Application of Ripeners (100 g ai/ha, 30 DAA): 15.90% | % POL in the Cane of Sugarcane Crop after Application of Ripeners (100 g ai/ha, 30 DAA): 13.83% | % PURITY in Pressed Broth of Sugarcane Crop after Application of Ripeners (100 g ai/ha, 30 DAA): 86.05% | % BRIX in Pressed Broth of Sugarcane Crop after Application of Ripeners (100 g ai/ha, 45 DAA): 18.60% | % POL in Pressed Broth of Sugarcane Crop after Application of Ripeners (100 g ai/ha, 45 DAA): 15.75% | % POL in the Cane of Sugarcane Crop after Application of Ripeners (100 g ai/ha, 45 DAA): 13.43% | % PURITY in Pressed Broth of Sugarcane Crop after Application of Ripeners (100 g ai/ha, 45 DAA): 83.38%
